{"source": "patent US5250683A", "about": "“Certain substituted taxanes and pharmaceutical compositions containing them” (Florida State University, priority 1992, dated 1993)", "data": [{"system": "tubulin", "assay": "Tubulin binding assay (Tubulin Assay), method of Parness et al.", "settings": "compared to taxol and taxotere", "values": [{"smiles": "CC(=O)O[C@H]1C(=O)[C@@]2(C)[C@H]([C@H](OC(=O)c3ccccc3)[C@]3(O)C[C@H](OC(=O)[C@H](O)[C@@H](NC(=O)c4ccc(Br)cc4)c4ccc(F)cc4)C(C)=C1C3(C)C)[C@]1(OC(C)=O)CO[C@@H]1C[C@@H]2O", "note": "[Example 19, N-debenzoyl-N-(4-bromobenzoyl)-3'-desphenyl-3'-(4-fluorophenyl) taxol]", "Tubulin Assay Init. Peak": 88, "Tubulin Assay Rel. Rate": 100}, {"smiles": "CC(=O)O[C@H]1C(=O)[C@@]2(C)[C@H]([C@H](OC(=O)c3ccccc3)[C@]3(O)C[C@H](OC(=O)[C@H](O)[C@@H](NC(=O)c4ccc(C)cc4)c4ccc(F)cc4)C(C)=C1C3(C)C)[C@]1(OC(C)=O)CO[C@@H]1C[C@@H]2O", "note": "[Example 20, N-debenzoyl-N-(4-methylbenzoyl)-3'-desphenyl-3'-(4-fluorophenyl) taxol]", "Tubulin Assay Init. Peak": 85, "Tubulin Assay Rel. Rate": 98}, {"smiles": "COc1ccc([C@H](NC(=O)c2ccc(F)cc2)[C@@H](O)C(=O)O[C@H]2C[C@@]3(O)[C@@H](OC(=O)c4ccccc4)[C@@H]4[C@]5(OC(C)=O)CO[C@@H]5C[C@H](O)[C@@]4(C)C(=O)[C@H](OC(C)=O)C(=C2C)C3(C)C)cc1", "note": "[Example 21, N-debenzoyl-N-(4-fluorobenzoyl)-3'-desphenyl-3'-(4-methoxyphenyl) taxol]", "Tubulin Assay Init. Peak": 45, "Tubulin Assay Rel. Rate": 81}, {"smiles": "COc1ccc([C@H](NC(=O)c2ccc(C)cc2)[C@@H](O)C(=O)O[C@H]2C[C@@]3(O)[C@@H](OC(=O)c4ccccc4)[C@@H]4[C@]5(OC(C)=O)CO[C@@H]5C[C@H](O)[C@@]4(C)C(=O)[C@H](OC(C)=O)C(=C2C)C3(C)C)cc1", "note": "[Example 22, N-debenzoyl-N-(4-methylbenzoyl)-3'-desphenyl-3'-(4-methoxyphenyl) taxol]", "Tubulin Assay Init. Peak": 77, "Tubulin Assay Rel. Rate": 96}, {"smiles": "CC(=O)O[C@H]1C(=O)[C@@]2(C)[C@H]([C@H](OC(=O)c3ccccc3)[C@]3(O)C[C@H](OC(=O)[C@H](O)[C@@H](NC(=O)c4ccc(F)cc4)c4ccc(Cl)cc4)C(C)=C1C3(C)C)[C@]1(OC(C)=O)CO[C@@H]1C[C@@H]2O", "note": "[Example 23, N-debenzoyl-N-(4-fluorobenzoyl)-3'-desphenyl-3'-(4-chlorophenyl) taxol]", "Tubulin Assay Init. Peak": 63, "Tubulin Assay Rel. Rate": 88}, {"smiles": "CC(=O)O[C@H]1C(=O)[C@@]2(C)[C@H]([C@H](OC(=O)c3ccccc3)[C@]3(O)C[C@H](OC(=O)[C@H](O)[C@@H](NC(=O)c4ccc(Cl)cc4)c4ccc(Cl)cc4)C(C)=C1C3(C)C)[C@]1(OC(C)=O)CO[C@@H]1C[C@@H]2O", "note": "[Example 24, N-debenzoyl-N-(4-chlorobenzoyl)-3'-desphenyl-3'-(4-chlorophenyl) taxol]", "Tubulin Assay Init. Peak": 35, "Tubulin Assay Rel. Rate": 60}, {"smiles": "CC(=O)O[C@H]1C(=O)[C@@]2(C)[C@H]([C@H](OC(=O)c3ccccc3)[C@]3(O)C[C@H](OC(=O)[C@H](O)[C@@H](NC(=O)c4ccc(Br)cc4)c4ccc(Cl)cc4)C(C)=C1C3(C)C)[C@]1(OC(C)=O)CO[C@@H]1C[C@@H]2O", "note": "[Example 25, N-debenzoyl-N-(4-bromobenzoyl)-3'-desphenyl-3'-(4-chlorophenyl) taxol]", "Tubulin Assay Init. Peak": 60, "Tubulin Assay Rel. Rate": 83}, {"smiles": "CC(=O)O[C@H]1C(=O)[C@@]2(C)[C@H]([C@H](OC(=O)c3ccccc3)[C@]3(O)C[C@H](OC(=O)[C@H](O)[C@@H](NC(=O)c4ccc(C(C)(C)C)cc4)c4ccc(Cl)cc4)C(C)=C1C3(C)C)[C@]1(OC(C)=O)CO[C@@H]1C[C@@H]2O", "note": "[Example 26, N-debenzoyl-N-(4-t-butylbenzoyl)-3'-desphenyl-3'-(4-chlorophenyl) taxol]", "Tubulin Assay Init. Peak": 13, "Tubulin Assay Rel. Rate": 23}, {"smiles": "CC(=O)O[C@H]1C(=O)[C@@]2(C)[C@H]([C@H](OC(=O)c3ccccc3)[C@]3(O)C[C@H](OC(=O)[C@H](O)[C@@H](NC(=O)c4ccc(C(C)(C)C)cc4)c4ccc(F)cc4)C(C)=C1C3(C)C)[C@]1(OC(C)=O)CO[C@@H]1C[C@@H]2O", "note": "[Example 27, N-debenzoyl-N-(4-t-butylbenzoyl)-3'-desphenyl-3'-(4-fluorophenyl) taxol]", "Tubulin Assay Init. Peak": 55, "Tubulin Assay Rel. Rate": 82}, {"smiles": "COc1ccc(C(=O)N[C@@H](c2ccc(F)cc2)[C@@H](O)C(=O)O[C@H]2C[C@@]3(O)[C@@H](OC(=O)c4ccccc4)[C@@H]4[C@]5(OC(C)=O)CO[C@@H]5C[C@H](O)[C@@]4(C)C(=O)[C@H](OC(C)=O)C(=C2C)C3(C)C)cc1", "note": "[Example 28, N-debenzoyl-N-(4-methoxybenzoyl)-3'-desphenyl-3'-(4-fluorophenyl) taxol]", "Tubulin Assay Init. Peak": 106, "Tubulin Assay Rel. Rate": 97}, {"smiles": "COc1ccc([C@H](NC(=O)c2ccc(Cl)cc2)[C@@H](O)C(=O)O[C@H]2C[C@@]3(O)[C@@H](OC(=O)c4ccccc4)[C@@H]4[C@]5(OC(C)=O)CO[C@@H]5C[C@H](O)[C@@]4(C)C(=O)[C@H](OC(C)=O)C(=C2C)C3(C)C)cc1", "note": "[Example 29, N-debenzoyl-N-(4-chlorobenzoyl)-3'-desphenyl-3'-(4-methoxyphenyl) taxol]", "Tubulin Assay Init. Peak": 42, "Tubulin Assay Rel. Rate": 72}, {"smiles": "COc1ccc([C@H](NC(=O)c2ccc(Br)cc2)[C@@H](O)C(=O)O[C@H]2C[C@@]3(O)[C@@H](OC(=O)c4ccccc4)[C@@H]4[C@]5(OC(C)=O)CO[C@@H]5C[C@H](O)[C@@]4(C)C(=O)[C@H](OC(C)=O)C(=C2C)C3(C)C)cc1", "note": "[Example 30, N-debenzoyl-N-(4-bromobenzoyl)-3'-desphenyl-3'-(4-methoxyphenyl) taxol]", "Tubulin Assay Init. Peak": 44, "Tubulin Assay Rel. Rate": 70}, {"smiles": "COc1ccc([C@H](NC(=O)c2ccc(C(C)(C)C)cc2)[C@@H](O)C(=O)O[C@H]2C[C@@]3(O)[C@@H](OC(=O)c4ccccc4)[C@@H]4[C@]5(OC(C)=O)CO[C@@H]5C[C@H](O)[C@@]4(C)C(=O)[C@H](OC(C)=O)C(=C2C)C3(C)C)cc1", "note": "[Example 31, N-debenzoyl-N-(4-t-butylbenzoyl)-3'-desphenyl-3'-(4-methoxyphenyl) taxol]", "Tubulin Assay Init. Peak": 24, "Tubulin Assay Rel. Rate": 44}, {"smiles": "COc1ccc(C(=O)N[C@@H](c2ccc(OC)cc2)[C@@H](O)C(=O)O[C@H]2C[C@@]3(O)[C@@H](OC(=O)c4ccccc4)[C@@H]4[C@]5(OC(C)=O)CO[C@@H]5C[C@H](O)[C@@]4(C)C(=O)[C@H](OC(C)=O)C(=C2C)C3(C)C)cc1", "note": "[Example 32, N-debenzoyl-N-(4-methoxybenzoyl)-3'-desphenyl-3'-(4-methoxyphenyl) taxol]", "Tubulin Assay Init. Peak": 51, "Tubulin Assay Rel. Rate": 81}, {"smiles": "CC(=O)O[C@H]1C(=O)[C@@]2(C)[C@H]([C@H](OC(=O)c3ccccc3)[C@]3(O)C[C@H](OC(=O)[C@H](O)[C@@H](NC(=O)c4ccccc4)c4ccccc4)C(C)=C1C3(C)C)[C@]1(OC(C)=O)CO[C@@H]1C[C@@H]2O", "note": "[Taxol, taxol, reference compound]", "Tubulin Assay Init. Peak": 100, "Tubulin Assay Rel. Rate": 98}, {"smiles": "CC(=O)O[C@@]12CO[C@@H]1C[C@H](O)[C@@]1(C)C(=O)[C@H](O)C3=C(C)[C@@H](OC(=O)[C@H](O)[C@@H](NC(=O)OC(C)(C)C)c4ccccc4)C[C@@](O)([C@@H](OC(=O)c4ccccc4)[C@H]21)C3(C)C", "note": "[Taxotere, taxotere, reference compound]", "Tubulin Assay Init. Peak": 100}]}]}
